How the values were obtained:
[1] = biological target: T1, CCK-B receptor (Mus musculus, UniProt P56481); assay: CCK-B receptor antagonism, displacement of [3H]CCK-8, cerebral cortex crude membrane; type: binding, mouse (male ddY); details: mouse cerebral cortex membrane, [3H]CCK-8 1 nM, 90 min, 25 °C; read-out: Receptor CCK-B (IC50)
T1 construct: crude membrane specimen from mouse cerebral cortex; from tissue; host or cells: cerebral cortex of male ddY mice, crude membranes
T1 sequence (P56481 1-453): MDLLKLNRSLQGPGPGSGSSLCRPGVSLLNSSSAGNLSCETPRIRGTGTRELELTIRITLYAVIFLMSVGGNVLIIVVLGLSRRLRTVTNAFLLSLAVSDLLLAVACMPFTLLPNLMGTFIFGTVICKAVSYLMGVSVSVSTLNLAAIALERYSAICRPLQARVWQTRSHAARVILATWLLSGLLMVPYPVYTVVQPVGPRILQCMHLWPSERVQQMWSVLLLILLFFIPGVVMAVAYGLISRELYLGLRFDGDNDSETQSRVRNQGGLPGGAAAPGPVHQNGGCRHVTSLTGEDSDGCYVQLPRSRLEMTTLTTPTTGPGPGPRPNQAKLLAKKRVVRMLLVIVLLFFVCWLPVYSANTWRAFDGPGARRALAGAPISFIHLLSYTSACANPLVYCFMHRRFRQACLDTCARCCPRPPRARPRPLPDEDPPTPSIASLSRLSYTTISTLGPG
Procedure: (§1) Male Hartley guinea pig (450-600 g) or male ddY mouse (24-30 g) were used.
(§2) (2) CCK-A Receptor Antagonism and CCK-B Receptor Antagonism
(§3) Preparation of CCK receptor preparations
(§4) Male ddY mice (24 to 30 g) were killed by decapitation and cerebral cortex (CCK-B) and pancreas (CCK-A) were extracted immediately. Each of cerebral cortex and pancreas was mixed with 50 mM Tris-HCl buffer (pH 7.4) and homogenized with a teflon-glass homogenizer and polytron homogenizer to obtain crude membrane specimens.
(§5) Preparation of test compounds and procedures of displacing assay A 1M solution of a compound to be tested in DMSO is prepared and diluted with 50% DMSO to obtain a ten-fold dilution series.
(§6) The reaction is initiated by the addition of crude membrane specimen to solutions of different concentration each containing [^3 H]CCk-8 (final concentration, 1 nM). The mixture is incubated for 90 min at 25° C., filtered through glass filter with aspiration and washed with a cooled 50 mM Tris buffer. After the addition of Aquazol-2 cocktail the radioactivity is counted. The same procedure was repeated using 50% DMSO solution or Ceruletide (final concentration, 1 μM) instead of a solution of test compound so as to obtain the control value regarding total binding or the value regarding non-specific binding, respectively. […]
(§7) specific binding of control=total binding (cpm)-non-specific binding (cpm); and specific binding of test compound=[…]-non-specific binding (cpm).

[2] = biological target: T2, gastrin receptor (Cavia porcellus, UniProt H0VZC5); assay: Gastrin receptor antagonism, displacement of 125I-labeled gastrin, gastric (fundic) gland cells; type: binding, guinea pig (male Hartley); details: guinea pig gastric glands, 125I-gastrin 0.2 nM, 30 min, 25 °C; read-out: Receptor Gastrin (IC50)
T2 construct: stomach was extracted from each animal immediately, from which gastric glands were prepared; from tissue; host or cells: gastric (fundic) glands of male Hartley guinea pigs
T2 sequence (H0VZC5 1-426): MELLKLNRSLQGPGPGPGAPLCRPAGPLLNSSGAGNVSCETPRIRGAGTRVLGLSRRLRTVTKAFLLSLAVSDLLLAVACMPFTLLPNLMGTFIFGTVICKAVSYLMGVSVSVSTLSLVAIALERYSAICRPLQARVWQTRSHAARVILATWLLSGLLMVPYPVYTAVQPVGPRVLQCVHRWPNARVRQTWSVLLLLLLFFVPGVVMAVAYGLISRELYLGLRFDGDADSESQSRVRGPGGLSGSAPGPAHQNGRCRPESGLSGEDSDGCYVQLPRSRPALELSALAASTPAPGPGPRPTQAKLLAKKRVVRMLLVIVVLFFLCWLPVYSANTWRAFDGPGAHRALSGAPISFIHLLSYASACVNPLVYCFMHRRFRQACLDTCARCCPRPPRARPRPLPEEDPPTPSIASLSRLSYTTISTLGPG
Procedure: as §1
(1) Gastrin Receptor Antagonism
Preparation of gastric glands:
Male Hartley guinea pigs (450-600 g) were killed by bleeding and stomach was extracted from each animal immediately, from which gastric glands were prepared.
Preparation of test compounds and procedures of displacing assay
A 1M solution of a compound to be tested in DMSO is prepared and diluted with 50% DMSO to obtain a ten-fold dilution series.
The mixture is incubated for 30 min at 25° C., centrifuged at 2000 rpm for 5 min and the supernatant is removed by aspiration. To the pellet is added ice-cooled incubation buffer and mixed gently, followed by an immediate centrifugation and removal of the supernatant by aspiration. The radioactivity is counted on gamma counter. The same procedure was repeated using 50% DMSO solution or human gastrin I (final concentration, 2 μM) instead of a solution of test compound so as to obtain the control value regarding total binding or the value regarding non-specific binding, respectively. […]
as §7

[3] = biological target: T3, CCK-A receptor (Mus musculus, UniProt O08786); assay: CCK-A receptor antagonism, displacement of [3H]CCK-8, pancreas crude membrane; type: binding, mouse (male ddY); details: mouse pancreas membrane, [3H]CCK-8 1 nM, 90 min, 25 °C; read-out: Receptor CCK-A (IC50)
T3 construct: crude membrane specimen from mouse pancreas; from tissue; host or cells: pancreas of male ddY mice, crude membranes
T3 sequence (O08786 1-436): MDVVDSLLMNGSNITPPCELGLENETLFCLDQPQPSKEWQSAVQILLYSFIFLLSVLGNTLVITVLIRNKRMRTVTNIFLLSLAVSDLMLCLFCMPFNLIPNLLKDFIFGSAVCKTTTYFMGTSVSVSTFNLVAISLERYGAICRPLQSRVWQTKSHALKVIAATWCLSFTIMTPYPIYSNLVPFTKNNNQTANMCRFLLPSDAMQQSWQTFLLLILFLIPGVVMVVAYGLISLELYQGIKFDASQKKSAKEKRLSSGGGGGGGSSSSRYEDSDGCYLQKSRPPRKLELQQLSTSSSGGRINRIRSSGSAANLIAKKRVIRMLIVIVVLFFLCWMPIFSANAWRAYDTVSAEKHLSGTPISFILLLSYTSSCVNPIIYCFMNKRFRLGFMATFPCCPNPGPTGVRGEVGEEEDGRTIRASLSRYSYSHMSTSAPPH
Procedure: as §1, §2, §3, §4, §5, §6, §7

[4] = tested on: gastric acid secretion; assay: Inhibitory effect on gastric acid secretion by Schild method (pentagastrin-stimulated); type: in vivo, rat (male Sprague Dawley); details: intraduodenal, rat, read-out: Inhibitory Effect on acid secretion (Schild method), percent inhibition
Excerpt: Evaluation of Inhibitory Effect on Gastric Acid Secretion by Schild Method
Twenty four hour starved (ad libitum for water) male Sprague Dawley rats (8-week-old) were anesthetized with urethane (1.5 g/kg S.C.) and kept breathing with esophagus cannulas. After laparotomy, esophagus cannulas were inserted orally up to proventriculus and ligated around gastric cardiac. Perfusion cannulas were inserted from duodenum into stomach and ligated around pylorus. Another cannulas were placed into duodenum and ligated for administration of drug. After sutra of abdomen, stomach was perfused via the esophagus cannulas with physiological saline (37° C.) while collecting perfusate for a 15 min interval. The perfusate was subjected to titration with 0.001 N NaOH solution to determine the acidity. When the basal acid secretion became stable, pentagastrin ([…]) was administered in a sustained manner via common carotid vein for about 90 min until the acid secretion reached approximately the highest level, when a test compound (0.5% M.C. suspension) was administered into duodenum through cannulas. The perfusate was collected for a 15 min interval to monitor the acid secretion for 90 min. The percent inhibition was calculated as follows:
Percent inhibition (%)=100×(A-B)/(C-B)
A: the minimum value of total acidity observed after the administration of a test compound;
B: the total acidity obtained immediately before the administration of pentagastrin; and
C: the total acidity obtained immediately before the administration of a test compound.

| SMILES | IC50 [1] | IC50 [2] | IC50 [3] | inhibition in vivo at 0.3 mg/kg [4] | inhibition in vivo at 0.1 mg/kg ([4]; 0.1 mg/kg) | inhibition in vivo at 0.5 mg/kg ([4]; 0.5 mg/kg) |
| --- | --- | --- | --- | --- | --- | --- |
| O=C(Nc1cccc(C(=O)O)c1)NC1C(=O)N(CC(=O)C2CC2)c2ccccc2N(CC(=O)C2CC2)C1=O [Compound 17-ii] | 105 nM | 5 nM | > 10000 nM | 72% |  |  |
| Cc1cccc(NC(=O)NC2C(=O)N(CC(=O)C3CC3)c3ccccc3N(CC(=O)C3CC3)C2=O)c1 [Compound 8h, 1,5-Bis-(cyclopropylcarbonylmethyl)-3-(N'-(m-tolyl)ureido)-1H-1,5-benzodiazepine-2,4(3H,5H)-dione] | 18 nM | 5 nM | 380 nM | 81% |  |  |
| Cc1cccc(NC(=O)NC2C(=O)N(Cc3cccc(N)c3)c3ccccc3N(Cc3cccc(N)c3)C2=O)c1 [Compound 8r] | 21 nM | 18 nM | 760 nM | 46% |  |  |
| Cc1cccc(NC(=O)NC2C(=O)N(CC(=O)c3ccco3)c3ccccc3N(CC(=O)c3ccco3)C2=O)c1 [Compound 8f, 1,5-Bis-(2-furylcarbonylmethyl)-3-{N'-(m-tolyl)-ureido}-1H-1,5-benzodiazepine-2,4(3H,5H)-dione] | 17 nM | 3 nM | 120 nM | 73% |  |  |
| CC(C)S(=O)(=O)NC(=O)c1cccc(NC(=O)NC2C(=O)N(CC(=O)C3CC3)c3ccccc3N(CC(=O)C3CC3)C2=O)c1 [Compound 17-iii, 1,5-Bis-(cyclopropylcarbonylmethyl)-3-(N'-(m-(isopropylsulfonylaminocarbonyl)phenyl)ureido)-1H-1,5-benzodiazepine-2,4(3H,5H)-dione] | 190 nM | 6 nM | 11500 nM | 47% |  |  |

The next lines start with results.

| IC50 [1] | IC50 [2] | IC50 [3] | SMILES | inhibition in vivo at 0.3 mg/kg [4] | inhibition in vivo at 0.1 mg/kg ([4]; 0.1 mg/kg) | inhibition in vivo at 0.5 mg/kg ([4]; 0.5 mg/kg) |
| --- | --- | --- | --- | --- | --- | --- |
| 48 nM | 15 nM | 2500 nM | COC(=O)Cc1cccc(NC(=O)NC2C(=O)N(CC(=O)C3CC3)c3ccccc3N(CC(=O)C3CC3)C2=O)c1 [Compound 17-xii, 1,5-Bis-(cyclopropylcarbonylmethyl)-3-(N'-(m-(carbomethoxymethyl)phenyl)ureido)-1H-1,5-benzodiazepine-2,4(3H,5H)-dione] | 48% |  |  |
| 180 nM | 16 nM | 3600 nM | CCOC(=O)COc1cccc(NC(=O)NC2C(=O)N(CC(=O)C3CC3)c3ccccc3N(CC(=O)C3CC3)C2=O)c1 [Compound 17-v, 1,5-Bis-(cyclopropylcarbonylmethyl)-3-(N'-(m-(carboethoxymethoxy)phenyl)ureido)-1H-1,5-benzodiazepine-2,4(3H,5H)-dione] | 59% |  |  |
| 3 nM | 1 nM | 360 nM | O=C(Nc1cccc(-c2nc(=O)o[nH]2)c1)NC1C(=O)N(CC(=O)C2CC2)c2ccccc2N(CC(=O)C2CC2)C1=O [Compound 17-x, 1,5-Bis-(cyclopropylcarbonylmethyl)-3-(N'-(m-(5-keto-1,2,4-oxadiazol-3-yl)phenyl)ureido)-1H-1,5-benzodiazepine-2,4(3H,5H)-dione] | 70% |  |  |
| 2 nM | 0.6 nM | 500 nM | O=C(O)CSc1cccc(NC(=O)NC2C(=O)N(CC(=O)C3CC3)c3ccccc3N(CC(=O)C3CC3)C2=O)c1 [Compound 17-ix, 1,5-Bis-(cyclopropylcarbonylmethyl)-3-(N'-(m-(carboxymethylthio)phenyl)ureido)-1H-l,5-benzodiazepine-2,4(3H,5H)-dione] |  | 74% |  |
| 26 nM | 6 nM | 2600 nM | O=C(Nc1cccc(-c2nnn[nH]2)c1)NC1C(=O)N(CC2CC2)c2ccccc2N(CC2CC2)C1=O [Compound 19-iv, 1,5-Bis-(cyclopropylmethyl)-3-(N'-(m-tetrazolylphenyl)ureido)-1H-1,5-benzodiazepine-2,4(3H,5H)-dione] |  |  | 58% |
| 6 nM | 2 nM | 460 nM | CCOC(=O)CSc1cccc(NC(=O)NC2C(=O)N(CC(=O)C3CC3)c3ccccc3N(CC(=O)C3CC3)C2=O)c1 [Compound 17-viii, 1,5-Bis-(cyclopropylcarbonylmethyl)-3-(N'-(m-(carboethoxymethylthio)phenyl)ureido)-1H-1,5-benzodiazepine-2,4(3H,5H)-dione] | 76% |  |  |
| 38 nM | 4 nM | 3600 nM | O=C(Nc1cccc(-c2nnn[nH]2)c1)NC1C(=O)N(CC(=O)N2CCCC2)c2ccccc2N(CC(=O)N2CCCC2)C1=O [Compound 18-iv] | 65% |  |  |
| 7 nM | 2 nM | 4800 nM | O=C(O)Cc1cccc(NC(=O)NC2C(=O)N(CC(=O)C3CC3)c3ccccc3N(CC(=O)C3CC3)C2=O)c1 [Compound 17-xiii, 1,5-Bis-(cyclopropylcarbonylmethyl)-3-(N'-(m-(carbomethyl)phenyl)ureido)-1H-1,5-benzodiazepine-2,4(3H,5H)-dione] | 21% |  |  |

— patent US5776929A, “Benzodiazepine derivative” (Shionogi & Co., Ltd., priority 1993, dated 1998)
